The record followed here is patent US20240209456A1, “METHODS AND COMPOSITIONS RELATED TO CELL-CYCLE RNA's” (BETH ISRAEL DEACONESS MEDICAL CENTER, priority 2021, published 2024).

Assay [1] relates to acH2A.Z. Briefly: ChIP-Seq with acH2A.Z antibody, occupancy at TSSs. Format: cell-based, human. The note with it: for number of TSS with at least / greater than 2-fold drop in acH2A.Z occupancy: HL-60, 2 hr treatment, vs cells without treatment, 38,512 TSS compared; for acH2A.Z enrichment at the TSS, genome-wide / acH2A.Z peak intensity ratio, MYB locus (DMSO = 0.62, ActD = 1.0) / acH2A.Z peak intensity ratio, PU.1 locus (DMSO = 1.0) / acH2A.Z peak intensity ratio, c-MYC locus (DMSO = 1): HL-60, 2 hr; for acH2A.Z enrichment at the TSS, genome-wide: vs mock-treated (DMSO), FIG. 4C; for acH2A.Z peak intensity ratio, MYB locus (DMSO = 0.62, ActD = 1.0) / acH2A.Z peak intensity ratio, PU.1 locus (DMSO = 1.0) / acH2A.Z peak intensity ratio, c-MYC locus (DMSO = 1): [DMSO/DRB/ActD]. The source says: Two transcription inhibitors, Actinomycin D (ActD; RNA Polymerase I, II and III inhibitor) and 5,6-Dichlorobenzimidazole 1-β-D-ribofuranoside (DRB; RNAPII Inhibitor), were used at concentrations sufficient to block both RNA Polymerases II and III. Cells were synchronized with a double thymidine block and released into S Phase with ActD/DRB added. The rationale behind the use of ActD and DRB is: (i) to globally assess the effect of SPEARs suppression over a short time frame; (ii) to test effects resulting from the two different pathways triggered by ActD and DRB; and (iii) to take advantage of the reversibility of DRB treatment. […] Two hours after drug treatment, cells were crosslinked and subjected to ChIP-Seq analyses. […] Relative changes were then investigated in the footprints of unmodified H2A.Z and acH2A.Z in the vicinity of TSSs that result from DRB- and ActD-induced inhibition of SPEARs. The enrichments of ChIP-Seq signals for H2A.Z and acH2A.Z around 38,512 TSS (defined in the hg38 UCSC canonical gene table) following drug treatment were then compared with their occupancy in mock-treated (DMSO) cells. […] ActD-treated cells followed this pattern with a greater than 2-fold decrease in the levels of acH2A.Z at 6,283 TSS compared to untreated samples. […] For the c-MYC and PU1 loci, respectively, the ratios of control (DMSO) to drug treated H2A.Z peak intensities were: [DMSO/DRB/ActD]^c-MYC=1/0.76/0.67 and [DMSO/DRB/ActD]^PU.1=1/0.87/0.82; and the ratios of control (DMSO) to drug treated acH2A.Z peak intensities were: [DMSO/DRB/ActD]^c-MYC=1/0.62/0.36 and [DMSO/DRB/ActD]^PU.1=1.0/0.25/0.13. […] For MYB the ratios of control (DMSO) to drug treated acH2A.Z peak intensities are: [DMSO/DRB/ActD]^MYB=0.62/0.89/1.0, which corresponds to the increases in its SPEARs levels (FIG. 10C).
Double Thymidine block (early S-phase block) was carried out as described. Briefly, HL-60 cells were grown overnight to 70-80% confluence, washed twice with 1×PBS and cultured in DMEM (10% FCS)+2.5 mM Thymidine for 18 h (first block). Thymidine was washed out with 1×PBS and cells were grown in DMEM (10% FCS). After 8 hrs cells were cultured in the presence of thymidine for 18 h (second block) and then released as described. Synchrony was monitored by flow cytometry analysis of propidium iodide-stained cells using a LSRII flow cytometer (BD Biosciences) at the Harvard Stem Cell Institute/Beth Israel Deaconess Center flow cytometry facility.
DRB and Actinomycin D treatments were carried out as described. Briefly, after release from double thymidine block, HL-60 cells were treated with 100 μM of 5,6-Dichlorobenzimidazole 1-β-D-ribofuranoside (DRB) (Sigma Aldrich) or 0.8 μM of Actinomycin D (Sigma Aldrich) as indicated at each time point.
ChIP was performed as follows. Cells were crosslinked with 1% formaldehyde for 10 min at r.t. Pellets of 1×10^6 cells were used for immunoprecipitation and lysed for 10 minutes on ice and chromatin fragmented using a Branson 250 digital sonicator. Each ChIP was performed with 4 ug of antibody, incubated overnight at 4° C. A 50/50 slurry of protein A and protein G Dynabeads was used to capture enriched chromatin, which was then washed before reverse-crosslinking and proteinase K digestion at 65° C. AMPure XP beads were used to clean up and isolate ChIP DNA for subsequent library construction. The following antibodies were used for ChIP: H2A.Z (Abcam ab4174, lot GR3176820-1), acH2A.Z (Abcam ab18262, lot GR306397-1), TIP60 antibody; and IgG (Abcam ab171870). Fold enrichment was calculated using the formula 2^(−ΔΔCt(ChIP/non-immune serum)). Primer sets used for ChIP are listed in Table 2. nRIP was performed and crosslinked nuclei were collected as follows: 1. 60×10^6 HL-60 cells were crosslinked with 1% formaldehyde (formaldehyde solution, freshly made: 50 mM HEPES-KOH; 100 mM NaCl; 1 mM EDTA; 0.5 mM EGTA; 11% formaldehyde) for 10 min at room temperature. […]

The test system of assay [2] is acH2A.Z. Briefly: Western blot of total proteins, acH2A.Z normalized by H2A.Z. It is filed as cell-based, human. The conditions noted are these: HL-60, 2 hours; 200 μM MG149, 500 μM TH1834. The method, then:
Whole-cell lysates from approximately 0.2×10^6 cells per each sample were separated on 12% SDS-PAGE gels and transferred to a nitrocellulose membrane. Immunoblots were stained overnight at 4° C. with the following primary antibodies: H2A.Z (1:2,000; Abcam ab4174), H2A.Z acetyl (K4+K7+K11) (1:2,000; Abcam ab18262) or TIP60 (1:1000; generous gift from Bruno Amati). All secondary horseradish peroxidase (HRP)-conjugated antibodies were diluted 1:5,000 and incubated for 1 hr at room temperature with TBST/5% BSA. Immuno-reactive proteins were detected using the Pierce® ECL system (Thermo Scientific #32106).

*1 amine or outer side, *2 acyl side, *3 side chain or, on linkers, in order; H or OH if unused. Where a SMILES comes first, the peptide text is derived from it. Bridges are numbered along the chain shown (N, C = ends). Roman numbers before positions name the chains, in order. [ ]: non-standard residue; d: D form. Actinocin(9to1) = Cc1c2oc3c(C)ccc(C(=O)[*:1])c3nc-2c(C(=O)[*:2])c(N)c1=O; NMeV = CN[C@H](C(=O)O)C(C)C; Sar = CNCC(=O)O

As to `Cc1c2oc3c(C)ccc(C(=O)N[C@@H]4C(=O)N[C@H](C(C)C)C(=O)N5CCC[C@H]5C(=O)N(C)CC(=O)N(C)[C@@H](C(C)C)C(=O)O[C@@H]4C)c3nc-2c(C(=O)N[C@@H]2C(=O)N[C@H](C(C)C)C(=O)N3CCC[C@H]3C(=O)N(C)CC(=O)N(C)[C@@H](C(C)C)C(=O)O[C@@H]2C)c(N)c1=O` [ActD, Actinomycin D] (I: T[dV]P[Sar][NMeV] / II: T[dV]P[Sar][NMeV]; ester I:1-I:C, II:1-II:C; linker I:N-II:N via Actinocin(9to1)), in the assay with acH2A.Z [1], the “number of TSS with at least / greater than 2-fold drop in acH2A.Z occupancy” value is 6,283 TSS; the “acH2A.Z enrichment at the TSS, genome-wide” value was “drastic reduction”; the “acH2A.Z peak intensity ratio, MYB locus (DMSO = 0.62, ActD = 1.0)” value came to 1.0; the “acH2A.Z peak intensity ratio, PU.1 locus (DMSO = 1.0)” value was determined as 0.13. For the same compound, the “acH2A.Z peak intensity ratio, c-MYC locus (DMSO = 1)” value in the assay with acH2A.Z [1] is on record as 0.36.

On to `OC[C@H]1O[C@@H](n2cnc3cc(Cl)c(Cl)cc32)[C@H](O)[C@@H]1O` [DRB, 5,6-Dichlorobenzimidazole 1-β-D-ribofuranoside], for which, in the assay with acH2A.Z [1], the “number of TSS with at least / greater than 2-fold drop in acH2A.Z occupancy” value is 3,394 TSS; the “acH2A.Z enrichment at the TSS, genome-wide” value is “drastic reduction”; the “acH2A.Z peak intensity ratio, MYB locus (DMSO = 0.62, ActD = 1.0)” value amounted to 0.89; the “acH2A.Z peak intensity ratio, PU.1 locus (DMSO = 1.0)” value is 0.25. Besides, the “acH2A.Z peak intensity ratio, c-MYC locus (DMSO = 1)” value with acH2A.Z [1] worked out at 0.62.

Consider `CCCCCCCc1ccc(CCc2cccc(O)c2C(=O)O)cc1` [MG149], for which the “level of acH2A.Z normalized by H2A.Z” value with acH2A.Z [2] is “Reduction”.

Turning to `O=C(O)Cn1nnc(-c2ccc(CN(CCCCOc3ccc(CN4CCCC4)cc3)CCc3ccccc3)cc2)n1` [TH1834], the “level of acH2A.Z normalized by H2A.Z” value in the assay with acH2A.Z [2] is “Reduction”.
